Bounds are passed on as bounds.

T1 sequence (Q13191 whole entry): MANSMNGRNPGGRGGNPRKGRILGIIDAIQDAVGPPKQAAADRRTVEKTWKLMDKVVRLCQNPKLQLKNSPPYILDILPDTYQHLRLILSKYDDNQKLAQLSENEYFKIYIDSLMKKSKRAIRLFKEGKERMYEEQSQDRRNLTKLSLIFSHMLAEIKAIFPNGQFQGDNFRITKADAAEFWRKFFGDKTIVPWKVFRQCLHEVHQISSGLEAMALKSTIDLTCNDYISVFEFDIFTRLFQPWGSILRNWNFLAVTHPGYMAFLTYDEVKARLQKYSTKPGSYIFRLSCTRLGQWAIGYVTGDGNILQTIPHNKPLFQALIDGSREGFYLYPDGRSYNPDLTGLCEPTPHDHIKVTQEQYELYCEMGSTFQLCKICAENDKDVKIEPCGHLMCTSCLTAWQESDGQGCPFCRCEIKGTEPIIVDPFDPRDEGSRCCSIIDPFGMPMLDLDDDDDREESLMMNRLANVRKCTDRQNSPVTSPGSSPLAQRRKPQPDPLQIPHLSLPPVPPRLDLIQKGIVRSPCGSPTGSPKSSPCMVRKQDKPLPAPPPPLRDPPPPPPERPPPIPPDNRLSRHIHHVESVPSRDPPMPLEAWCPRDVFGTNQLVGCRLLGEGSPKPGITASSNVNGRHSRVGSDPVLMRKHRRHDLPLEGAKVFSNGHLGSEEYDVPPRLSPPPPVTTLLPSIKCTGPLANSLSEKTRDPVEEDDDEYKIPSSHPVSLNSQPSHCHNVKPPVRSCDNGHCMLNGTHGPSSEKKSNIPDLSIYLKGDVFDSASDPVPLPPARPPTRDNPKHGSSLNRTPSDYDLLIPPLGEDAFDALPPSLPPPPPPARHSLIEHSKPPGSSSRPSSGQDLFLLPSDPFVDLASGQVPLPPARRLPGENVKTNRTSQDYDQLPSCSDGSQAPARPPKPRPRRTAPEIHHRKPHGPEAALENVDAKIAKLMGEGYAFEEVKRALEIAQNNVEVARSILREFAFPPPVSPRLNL

One test concerns the target T1, CBL-B (Homo sapiens, UniProt Q13191).
T1 construct: GST
Kind of test: CBL-B TR-FRET IC50 screening (E1/E2 ubiquitination, Biotin-Ubiquitin, Anti GST-Tb donor / Streptavidin-d2 acceptor). Type of test: biochemical. The note with it: CBL-B 10 nM final; 11-point titration from 100 uM; binned A-F; read-out: CBL-B TR-FRET activity IC50. On the technique in general: TR-FRET usually uses a lanthanide donor and a delayed reading to cut background.
Regarding `C[C@H]1CCCN(Cc2cc(C(F)(F)F)c3cn(-c4cccc([C@@H](CC5CC5)c5nncn5C)c4)c(=O)n3c2)C1` [Compound 332-p2], the IC50 was under 100 nM. For the compound `C[C@H]1CCCN(Cc2cc(C(F)(F)F)c3cn(-c4cccc([C@H](CC5CC5)c5nncn5C)c4)c(=O)n3c2)C1` [Compound 332_P1], the IC50 was over 10000 nM.

For `O=c1n(-c2cccc([C@H](c3nncs3)C3CCC3)c2)cc2c(C(F)(F)F)cc(CN3CCC(F)CC3)cn12` [Compound 333], the IC50 fell in the range of 100 to 300 nM. As to `C[C@H]1CCCN(Cc2cc(C(F)(F)F)c3cn(-c4cccc(N(c5nncn5C)C5COC5)c4)c(=O)n3c2)C1` [Compound 334], the IC50 is under 100 nM. For `Cn1cnnc1[C@@H](c1cccc(-n2cc3c(C(F)(F)F)cc(CN4CC(C)(C)C4)cn3c2=O)c1)C1CCC1` [Compound 337], the IC50 is under 100 nM. Still for that read-out and setting: the result for `Cn1cnnc1[C@@H](c1cccc(-n2cc3c(C(F)(F)F)cc(CN4CC(Oc5ccc(Cl)cc5)C4)cn3c2=O)c1)C1CCC1` [Compound 338] reads under 100 nM; that for `CC(=O)N1CCN(Cc2cc(C(F)(F)F)c3cn(-c4cccc([C@@H](c5nncn5C)C5CCC5)c4)c(=O)n3c2)CC1` [Compound 339_P1], under 100 nM; that for `CC(=O)N1CCN(Cc2cc(C(F)(F)F)c3cn(-c4cccc([C@H](c5nncn5C)C5CCC5)c4)c(=O)n3c2)CC1` [Compound 339_P2], 1000 to 3000 nM. On the same count and under the same terms, for `Cn1cnnc1[C@H](c1cccc(-n2cc3c(C(F)(F)F)cc(CN4CCN(C=O)CC4)cn3c2=O)c1)C1CCC1` [Compound 340_P1] the value was under 100 nM; for `Cn1cnnc1[C@@H](c1cccc(-n2cc3c(C(F)(F)F)cc(CN4CCN(C=O)CC4)cn3c2=O)c1)C1CCC1` [Compound 340_P2], 1000 to 3000 nM; for `C[C@H]1CCCN(Cc2cc(C(F)(F)F)c3cn(-c4cccc(C5(c6nncn6C)CCC5)c4)c(=O)n3c2)C1` [Compound 341], under 100 nM.

On to `C[C@H]1CCCN(Cc2cc(C(F)(F)F)c3cn(-c4cccc(N(c5nncs5)C5CCC5)c4)c(=O)n3c2)C1` [Compound 344], for which the IC50 was over 10000 nM. For `Cn1cnnc1[C@@H](c1cccc(-n2cc3c(C(F)(F)F)cc(CN4CCc5ncsc5C4)cn3c2=O)c1)C1COC1` [Compound 345], the IC50 is under 100 nM.

Consider `Cn1cnnc1[C@@H](c1cccc(-n2cc3c(C(F)(F)F)cc(CNC4CC(F)(F)C4)cn3c2=O)c1)C1CCC1` [Compound 346], for which the IC50 was over 10000 nM.

Turning to `CN(Cc1cc(C(F)(F)F)c2cn(-c3cccc([C@H](c4nncn4C)C4CCC4)c3)c(=O)n2c1)CC1COC1` [Compound 347], the IC50 is under 100 nM. Regarding `CC(=O)N1CC2CCC(C1)N2Cc1cc(C(F)(F)F)c2cn(-c3cccc([C@H](c4nncn4C)C4CCC4)c3)c(=O)n2c1` [Compound 348], the IC50 lay in the range of 100 to 300 nM.

As for `CC(=O)N1C2CCC1CN(Cc1cc(C(F)(F)F)c3cn(-c4cccc([C@H](c5nncn5C)C5CCC5)c4)c(=O)n3c1)C2` [Compound 349], the IC50 is under 100 nM. Turning to `CC1CCCN(Cc2cc(C(F)(F)F)c3cn(-c4cccc([C@H](c5nncn5C)C5CCC5)c4)c(=O)n3c2)CC1` (stereo partly drawn) [Compound 350], the IC50 was in the range of 100 to 300 nM. Still for that read-out and setting: for `COC(=O)N1CCN(Cc2cc(C(F)(F)F)c3cn(-c4cccc([C@@H](c5nncn5C)C5CCC5)c4)c(=O)n3c2)CC1` [Compound 351_P1] the value was 1000 to 3000 nM; for `COC(=O)N1CCN(Cc2cc(C(F)(F)F)c3cn(-c4cccc([C@H](c5nncn5C)C5CCC5)c4)c(=O)n3c2)CC1` [Compound 351_P2], under 100 nM; for `C[C@H]1CCCN(Cc2cc(C(F)(F)F)c3cn(-c4cccc([C@H](CC5CCC5)c5nncn5C)c4)c(=O)n3c2)C1` [Compound 352_P1], over 10000 nM.

For `C[C@H]1CCCN(Cc2cc(C(F)(F)F)c3cn(-c4cccc([C@@H](CC5CCC5)c5nncn5C)c4)c(=O)n3c2)C1` [Compound 352_P2], the IC50 was 100 to 300 nM. Turning to `Cn1cnnc1[C@@H](c1cccc(-n2cc3c(C(F)(F)F)cc(CN4Cc5ncsc5C4)cn3c2=O)c1)C1CCC1` [Compound 357], the IC50 is under 100 nM. Still for that read-out and setting: the result for `C[C@H]1CCCCN1Cc1cc(C(F)(F)F)c2cn(-c3cccc([C@@H](c4nncn4C)C4CCC4)c3)c(=O)n2c1` [Compound 362_P1] reads under 100 nM; that for `C[C@H]1CCCCN1Cc1cc(C(F)(F)F)c2cn(-c3cccc([C@H](c4nncn4C)C4CCC4)c3)c(=O)n2c1` [Compound 362_P2], 100 to 300 nM.

In the case of `C[C@@H]1CCCCN1Cc1cc(C(F)(F)F)c2cn(-c3cccc([C@@H](c4nncn4C)C4CCC4)c3)c(=O)n2c1` [Compound 363_P1], the IC50 is over 10000 nM. Turning to `C[C@@H]1CCCCN1Cc1cc(C(F)(F)F)c2cn(-c3cccc([C@H](c4nncn4C)C4CCC4)c3)c(=O)n2c1` [Compound 363_P2], the IC50 was under 100 nM. Still for that read-out and setting: for `CN1CCN(Cc2cc(C(F)(F)F)c3cn(-c4cccc([C@@H](c5nncn5C)C5CCC5)c4)c(=O)n3c2)CC1=O` [Compound 364_P1] the value was 301 to 1000 nM; for `CN1CCN(Cc2cc(C(F)(F)F)c3cn(-c4cccc([C@H](c5nncn5C)C5CCC5)c4)c(=O)n3c2)CC1=O` [Compound 364_P2], under 100 nM; for `CN1CC2CCC(C1)N2c1cc(C(F)(F)F)c2cn(-c3cccc([C@H](c4nncn4C)C4CCC4)c3)c(=O)n2c1` [Compound 373], 100 to 300 nM.

Consider `CN1C2CCC1CN(c1cc(C(F)(F)F)c3cn(-c4cccc([C@H](c5nncn5C)C5CCC5)c4)c(=O)n3c1)C2` [Compound 374], for which the IC50 was in the range of 301 to 1000 nM. Consider `COCCN(c1cccc(-n2cc3c(C(F)(F)F)cc(CN4CCC[C@H](C)C4)cn3c2=O)c1)c1nncn1C` [Compound 375], for which the IC50 lay in the range of 100 to 300 nM. With `CC1CCN(Cc2cc(C(F)(F)F)c3cn(-c4cccc([C@H](c5nncn5C)C5CCC5)c4)c(=O)n3c2)CC1` [Compound 376], the IC50 is under 100 nM. `CN(C)C(=O)C1CCN(Cc2cc(C(F)(F)F)c3cn(-c4cccc([C@H](c5nncn5C)C5CCC5)c4)c(=O)n3c2)CC1` [Compound 377]: the IC50 was under 100 nM. Consider `Cn1cnnc1[C@@H](c1cccc(-n2cc3c(C(F)(F)F)cc(CN4CCS(=O)(=O)CC4)cn3c2=O)c1)C1CCC1` [Compound 378], for which the IC50 is under 100 nM.

On to `C[C@H]1CCCN(C(=O)c2cc(C(F)(F)F)c3cn(-c4cccc([C@H](c5nncn5C)C5CCC5)c4)c(=O)n3c2)C1` [Compound 379], for which the IC50 is under 100 nM. With `C[C@H]1CCCN1Cc1cc(C(F)(F)F)c2cn(-c3cccc([C@@H](c4nncn4C)C4CCC4)c3)c(=O)n2c1` [Compound 380_P1], the IC50 fell in the range of 1000 to 3000 nM. As for `C[C@H]1CCCN1Cc1cc(C(F)(F)F)c2cn(-c3cccc([C@H](c4nncn4C)C4CCC4)c3)c(=O)n2c1` [Compound 380_P2], the IC50 is under 100 nM. For the compound `C[C@@H]1CCCN1Cc1cc(C(F)(F)F)c2cn(-c3cccc([C@@H](c4nncn4C)C4CCC4)c3)c(=O)n2c1` [Compound 381_P1], the IC50 is 1000 to 3000 nM.

Consider `C[C@@H]1CCCN1Cc1cc(C(F)(F)F)c2cn(-c3cccc([C@H](c4nncn4C)C4CCC4)c3)c(=O)n2c1` [Compound 381_P2], for which the IC50 is under 100 nM. On to `COC[C@@H]1CCCN1Cc1cc(C(F)(F)F)c2cn(-c3cccc([C@@H](c4nncn4C)C4CCC4)c3)c(=O)n2c1` [Compound 382_P1], for which the IC50 is under 100 nM. With `COC[C@@H]1CCCN1Cc1cc(C(F)(F)F)c2cn(-c3cccc([C@H](c4nncn4C)C4CCC4)c3)c(=O)n2c1` [Compound 382_P2], the IC50 fell in the range of 1000 to 3000 nM.

The same test, now with this note: second part of Table 2 (head 'Patent Cmpd No / Updated Activity'); same CBL-B TR-FRET IC50 bins A-F; read-out: Updated Activity.
Turning to `COC(=O)N1CCC(c2cc(C(F)(F)F)c3cn(-c4cccc([C@H](c5nncn5C)C5CCC5)c4)c(=O)n3c2)CC1` [Compound 395], the IC50 fell in the range of 100 to 300 nM. In the case of `CC(=O)N1CCC(c2cc(C(F)(F)F)c3cn(-c4cccc([C@H](c5nncn5C)C5CCC5)c4)c(=O)n3c2)CC1` [Compound 398], the IC50 was under 100 nM. Regarding `Cn1cnnc1[C@H](c1cccc(-n2cc3c(C(F)(F)F)cccn3c2=O)c1)C1CCC1` [Compound 401_P1], the IC50 is under 100 nM. The same measure, in the same setting: the result for `Cn1cnnc1[C@@H](c1cccc(-n2cc3c(C(F)(F)F)cccn3c2=O)c1)C1CCC1` [Compound 401_P2] reads over 10000 nM; that for `C[C@@H]1CN(Cc2cc(C(F)(F)F)c3cn(-c4cccc([C@H](CC5CCC5)c5nncn5C)c4)c(=O)n3c2)CCO1` [Compound 402], over 10000 nM; that for `C[C@H]1CCCN(Cc2cc(C(F)(F)F)c3cn(-c4cccc([C@H](c5nncn5C)C5CNC5)c4)c(=O)n3c2)C1` [Compound 403], over 10000 nM. Turning to `Cn1cnnc1[C@@H](c1cc(-n2cc3c(C(F)(F)F)cccn3c2=O)cs1)C1CCC1` [Compound 403_P1], the IC50 is over 10000 nM. Consider `Cn1cnnc1[C@H](c1cc(-n2cc3c(C(F)(F)F)cccn3c2=O)cs1)C1CCC1` [Compound 403_P2], for which the IC50 was 301 to 1000 nM.

Turning to `Cn1cnnc1[C@@H](c1cccc(-n2cc3c(C(F)(F)F)cc(CN4CCC5(CC5)C4)cn3c2=O)c1)C1COC1` [Compound 412], the IC50 is under 100 nM. With `Cn1cnnc1[C@@H](c1cccc(-n2cc3c(C(F)(F)F)cc(CN4CCC(C)(F)CC4)cn3c2=O)c1)C1COC1` [Compound 413], the IC50 was under 100 nM. Regarding `Cn1cnnc1[C@@H](c1cccc(-n2cc3c(C(F)(F)F)cc(CN4CCC(F)CC4)cn3c2=O)c1)C1COC1` [Compound 414], the IC50 is under 100 nM. As to `COC1CCN(Cc2cc(C(F)(F)F)c3cn(-c4cccc([C@H](c5nncn5C)C5COC5)c4)c(=O)n3c2)CC1` [Compound 415], the IC50 was under 100 nM.

In the case of `C[C@@H]1CCCN(Cc2cc(C(F)(F)F)c3cn(-c4cccc(C5(Cc6nncn6C)COC5)c4)c(=O)n3c2)C1` [Compound 416], the IC50 was under 100 nM.

For `Cn1cnnc1[C@@H](c1cccc(-n2cc3c(C(F)(F)F)cc(C(=O)N4CCC5(CC5)C4)cn3c2=O)c1)C1CCC1` [Compound 429], the IC50 was in the range of 100 to 300 nM. `Cn1cnnc1[C@@H](c1cccc(-n2cc3c(C(F)(F)F)cc(C(=O)N4CCC(C)(F)CC4)cn3c2=O)c1)C1CCC1` [Compound 430]: the IC50 fell in the range of 301 to 1000 nM.
